Source: patent publication US20040266784A1, “Calcium channel inhibitors comprising benzhydril spaced from piperazine” (priority 1998, published 2004)
Like-named read-outs stand apart in the source and are kept apart here.

Experiments:
rat formalin model = assay: Formalin-induced pain model; assay type: in vivo; conditions: 30 mg/kg IP, saline control=100%
Protocol: The effects of intrathecally delivered compounds of the invention on the rat formalin model were measured. The compounds were reconstituted to stock solutions of approximately 10 mg/ml in propylene glycol.
The following study groups were used, with test compound, vehicle control (propylene glycol) and saline delivered intraperitoneally (IP):
Prior to initiation of drug delivery baseline behavioral and testing data were taken.
On the morning of testing, a small metal band (0.5 g) was loosely placed around the right hind paw. The rat was placed in a cylindrical Plexiglas chamber for adaptation a minimum of 30 minutes. Test compound or vehicle control was administered 10 minutes prior to formalin injection (50 μl of 5% formalin) into the dorsal surface of the right hindpaw of the rat. The animal was then placed into the chamber of the automated formalin apparatus where movement of the formalin injected paw was monitored and the number of paw flinches tallied by minute over the next 60 minutes.

[1] = molecular target: T1, rat N-type channels (α1B+α2δ+β1b subunits) (Rattus norvegicus, UniProt Q02294); assay: Whole cell patch clamp, N-type calcium channel block in HEK 293 cells; assay type: cell-based; conditions: for specificity for N-type channels as compared to L and P/Q-type: FIGS. 2, 3 and 4
T1 construct: expressed in transfected cells
T1 sequence (Q02294 whole entry): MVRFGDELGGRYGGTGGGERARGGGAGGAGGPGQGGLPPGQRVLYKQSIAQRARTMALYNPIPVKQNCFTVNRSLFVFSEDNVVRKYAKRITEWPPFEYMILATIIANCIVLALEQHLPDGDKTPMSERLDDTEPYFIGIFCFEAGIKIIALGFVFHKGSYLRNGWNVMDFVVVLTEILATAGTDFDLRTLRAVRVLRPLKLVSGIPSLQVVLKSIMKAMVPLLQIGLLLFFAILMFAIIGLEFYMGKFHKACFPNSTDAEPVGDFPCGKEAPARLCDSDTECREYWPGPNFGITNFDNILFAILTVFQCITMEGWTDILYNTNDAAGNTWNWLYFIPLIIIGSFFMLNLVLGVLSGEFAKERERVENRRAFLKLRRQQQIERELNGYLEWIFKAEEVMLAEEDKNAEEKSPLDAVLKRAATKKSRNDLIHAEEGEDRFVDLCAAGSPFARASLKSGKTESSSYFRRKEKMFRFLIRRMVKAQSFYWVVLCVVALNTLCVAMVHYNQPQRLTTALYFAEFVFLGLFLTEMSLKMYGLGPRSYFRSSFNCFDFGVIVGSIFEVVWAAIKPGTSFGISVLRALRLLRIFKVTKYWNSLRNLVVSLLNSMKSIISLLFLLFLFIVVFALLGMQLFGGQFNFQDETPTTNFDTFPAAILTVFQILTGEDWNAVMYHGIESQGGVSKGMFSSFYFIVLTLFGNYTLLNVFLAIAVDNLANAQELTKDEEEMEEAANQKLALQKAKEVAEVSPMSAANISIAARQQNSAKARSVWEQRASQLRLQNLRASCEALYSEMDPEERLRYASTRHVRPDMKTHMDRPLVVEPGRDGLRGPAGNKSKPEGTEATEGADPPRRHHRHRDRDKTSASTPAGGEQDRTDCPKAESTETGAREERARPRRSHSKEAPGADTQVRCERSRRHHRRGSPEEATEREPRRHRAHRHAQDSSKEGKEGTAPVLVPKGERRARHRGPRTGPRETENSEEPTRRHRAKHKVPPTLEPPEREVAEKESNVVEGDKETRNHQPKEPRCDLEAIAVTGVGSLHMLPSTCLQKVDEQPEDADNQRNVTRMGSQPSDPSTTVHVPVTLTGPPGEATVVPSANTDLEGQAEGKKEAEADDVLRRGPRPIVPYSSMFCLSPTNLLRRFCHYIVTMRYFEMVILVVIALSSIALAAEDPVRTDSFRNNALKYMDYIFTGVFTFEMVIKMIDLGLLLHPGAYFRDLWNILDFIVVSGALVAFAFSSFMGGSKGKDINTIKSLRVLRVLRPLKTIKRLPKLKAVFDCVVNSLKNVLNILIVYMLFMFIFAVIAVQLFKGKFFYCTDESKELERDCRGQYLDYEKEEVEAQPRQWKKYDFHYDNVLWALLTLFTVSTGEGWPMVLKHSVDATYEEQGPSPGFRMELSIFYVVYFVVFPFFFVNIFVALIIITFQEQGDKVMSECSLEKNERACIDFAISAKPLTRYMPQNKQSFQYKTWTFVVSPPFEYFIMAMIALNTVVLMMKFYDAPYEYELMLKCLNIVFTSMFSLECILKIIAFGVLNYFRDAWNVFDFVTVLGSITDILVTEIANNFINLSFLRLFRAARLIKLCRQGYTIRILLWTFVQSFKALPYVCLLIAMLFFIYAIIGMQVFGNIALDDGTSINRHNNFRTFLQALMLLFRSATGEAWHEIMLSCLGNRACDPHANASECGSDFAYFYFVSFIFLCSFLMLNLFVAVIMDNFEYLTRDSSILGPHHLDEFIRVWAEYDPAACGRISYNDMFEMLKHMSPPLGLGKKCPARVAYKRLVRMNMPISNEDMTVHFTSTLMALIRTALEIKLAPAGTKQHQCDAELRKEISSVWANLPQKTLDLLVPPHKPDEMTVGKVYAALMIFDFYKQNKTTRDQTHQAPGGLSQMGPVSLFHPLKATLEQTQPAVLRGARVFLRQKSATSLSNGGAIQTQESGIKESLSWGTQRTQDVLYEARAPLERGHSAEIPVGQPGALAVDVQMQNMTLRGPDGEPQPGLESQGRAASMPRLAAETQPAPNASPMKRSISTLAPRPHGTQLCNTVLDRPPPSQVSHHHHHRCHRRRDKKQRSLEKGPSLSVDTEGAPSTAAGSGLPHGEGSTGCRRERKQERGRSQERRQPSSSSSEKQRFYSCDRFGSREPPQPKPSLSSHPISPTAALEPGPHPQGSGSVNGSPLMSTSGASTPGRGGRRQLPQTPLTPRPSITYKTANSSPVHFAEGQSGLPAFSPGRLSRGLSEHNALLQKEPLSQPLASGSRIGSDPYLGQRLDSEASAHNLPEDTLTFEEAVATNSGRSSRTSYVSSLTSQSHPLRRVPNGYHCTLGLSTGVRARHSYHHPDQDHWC
T1 sequence (P54290 25-944 partner limits assumed): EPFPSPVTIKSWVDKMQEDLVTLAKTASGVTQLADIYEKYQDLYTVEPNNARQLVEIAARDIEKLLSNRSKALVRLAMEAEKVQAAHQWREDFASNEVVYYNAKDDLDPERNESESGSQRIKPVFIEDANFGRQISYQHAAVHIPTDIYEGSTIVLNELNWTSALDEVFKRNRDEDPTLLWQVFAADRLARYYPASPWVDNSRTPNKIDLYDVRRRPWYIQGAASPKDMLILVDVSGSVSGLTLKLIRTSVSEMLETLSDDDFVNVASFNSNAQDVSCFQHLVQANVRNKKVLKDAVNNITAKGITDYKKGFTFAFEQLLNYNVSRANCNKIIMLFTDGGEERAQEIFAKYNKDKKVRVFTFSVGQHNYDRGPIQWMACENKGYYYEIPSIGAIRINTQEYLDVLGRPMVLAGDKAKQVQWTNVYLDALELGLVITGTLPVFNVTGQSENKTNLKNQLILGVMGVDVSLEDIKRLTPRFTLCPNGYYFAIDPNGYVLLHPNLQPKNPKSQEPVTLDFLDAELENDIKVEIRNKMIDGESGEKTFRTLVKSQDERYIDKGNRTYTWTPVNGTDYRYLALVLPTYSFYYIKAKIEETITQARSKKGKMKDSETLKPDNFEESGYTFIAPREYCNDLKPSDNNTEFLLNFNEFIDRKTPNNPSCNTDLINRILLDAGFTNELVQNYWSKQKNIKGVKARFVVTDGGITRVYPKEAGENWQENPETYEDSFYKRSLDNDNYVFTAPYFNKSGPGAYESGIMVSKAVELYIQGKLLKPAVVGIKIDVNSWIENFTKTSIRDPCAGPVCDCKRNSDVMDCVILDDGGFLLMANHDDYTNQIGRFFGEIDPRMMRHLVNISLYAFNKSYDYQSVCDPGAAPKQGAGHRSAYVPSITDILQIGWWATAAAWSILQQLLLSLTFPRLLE
T1 sequence (P54290 945-1091 partner limits assumed): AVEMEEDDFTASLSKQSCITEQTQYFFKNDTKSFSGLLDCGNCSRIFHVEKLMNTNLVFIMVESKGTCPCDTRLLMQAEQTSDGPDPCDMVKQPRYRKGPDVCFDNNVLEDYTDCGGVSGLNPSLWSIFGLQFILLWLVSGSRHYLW
T1 sequence (P54283 whole entry partner): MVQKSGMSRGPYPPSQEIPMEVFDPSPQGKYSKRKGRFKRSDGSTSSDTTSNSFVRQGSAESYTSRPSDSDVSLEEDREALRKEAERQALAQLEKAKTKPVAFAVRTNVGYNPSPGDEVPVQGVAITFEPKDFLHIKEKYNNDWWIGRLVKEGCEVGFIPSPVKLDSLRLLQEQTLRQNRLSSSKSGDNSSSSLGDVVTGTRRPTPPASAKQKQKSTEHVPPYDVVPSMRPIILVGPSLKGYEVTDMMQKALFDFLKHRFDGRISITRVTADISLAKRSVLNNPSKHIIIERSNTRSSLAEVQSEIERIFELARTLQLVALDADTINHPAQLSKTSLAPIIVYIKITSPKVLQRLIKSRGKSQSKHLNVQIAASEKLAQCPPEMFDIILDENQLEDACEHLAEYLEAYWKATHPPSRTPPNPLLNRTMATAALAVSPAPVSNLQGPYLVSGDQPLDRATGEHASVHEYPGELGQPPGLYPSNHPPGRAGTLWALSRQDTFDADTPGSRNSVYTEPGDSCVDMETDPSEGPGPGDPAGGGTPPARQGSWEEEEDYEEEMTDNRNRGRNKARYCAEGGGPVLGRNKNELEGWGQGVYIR
Protocol: (§1) Antagonist activity was measured using whole cell patch recordings on human embryonic kidney cells either stably or transiently expressing rat N-type channels (α1B+[…]+β1b subunits) with 5 mM barium as a charge carrier. Alternatively, cells either stably or transiently expressing rat L-type channels (α1C+α2δ+β1b cDNA subunits) and P/Q-type channels (α1A+α2δ+β1b cDNA subunits)
HEK 293 cells were transfected by a standard calcium-phosphate-DNA coprecipitation method using the rat α1B+β1b+α2δ N-type calcium channel subunits in a vertebrate expression vector (for example, see Current Protocols in Molecular Biology).
(§2) After an incubation period of from 24 to 72 hrs the culture medium was removed and replaced with external recording solution (see below). Whole cell patch clamp experiments were performed using an Axopatch 200B amplifier (Axon Instruments, Burlingame, Calif.) linked to an IBM compatible personal computer equipped with pCLAMP software. […] Current data shown were elicited by a train of 100 ms test pulses at 0.066 Hz from −100 mV and/or −80 mV to various potentials (min. −20 mV, max. +30 mV). Drugs were perfused directly into the vicinity of the cells using a microperfusion system.
Normalized dose-response curves were fit (Sigmaplot 4.0, SPSS Inc., Chicago, Ill.) by the Hill equation to determine IC50 values. Steady-state inactivation curves were plotted as the normalized test pulse amplitude following 5 s inactivating prepulses at +10 mV increments.
Alternatively, N-type calcium channels (α1B+α2δ+β1b cDNA subunits), L-type channels (α1C+α2δ+β1b cDNA subunits) and P/Q-type channels (α1A+α2δ+β1b cDNA subunits) were transiently expressed in HEK 293 cells. Briefly, cells were cultured in Dulbecco's modified eagle medium (DMEM) supplemented with 10% fetal bovine serum, 200 U/ml penicillin and 0.2 mg/ml streptomycin at 37° C. with 5% CO2. […] At 12 hours the medium was replaced and the cells transiently transfected using a standard calcium phosphate protocol and the appropriate calcium channel cDNAs. Fresh DMEM was supplied and the cells transferred to 28° C./5% CO2.
Whole cell patch clamp experiments were performed using an Axopatch 200B amplifier (Axon Instruments, Burlingame, Calif.) linked to a personal computer equipped with pCLAMP software. […] Currents were typically elicited from a holding potential of −80 mV to +10 mV using Clampex software (Axon Instruments). […] The compounds were then applied during the low frequency pulse trains for two to three minutes to assess tonic block, and subsequently the pulse frequency was increased to 0.2 Hz to assess frequency dependent block. Data were analyzed using Clampfit (Axon Instruments) and SigmaPlot 4.0 (Jandel Scientific).

[2] = molecular target: T2, human α1G subunits (T-type channels) (Homo sapiens, UniProt O43497); assay: Block of α1G T-type channels, patch clamp in HEK cell lines; assay type: cell-based
T2 construct: expressed in transfected cells
Protocol: Standard patch-clamp techniques were employed to identify blockers of T-type currents. Briefly, previously described HEK cell lines stably expressing human α1G subunits were used for all the recordings (passage #: 4-20, 37° C., 5% CO2). To obtain T-type currents, plastic dishes containing semi-confluent cells were positioned on the stage of a ZEISS AXIOVERT S100 microscope after replacing the culture medium with external solution (see below). Whole-cell patches were obtained using pipettes (borosilicate glass with filament, O.D.: 1.5 mm, I.D.: 0.86 mm, 10 cm length), fabricated on a SUTTER P-97 puller with resistance values of ˜5 MΩ (see below for internal medium).
Test compounds were dissolved in external solution, 0.1-0.01% DMSO. After ˜10 min rest, they were applied by gravity close to the cell using a WPI microfil tubing. The “non-inactivating” pre-pulse was used to examine the resting block of a compound. The “inactivating” protocol was employed to study voltage-dependent block. However, the initial data were obtained using the non-inactivating protocol.

[3] = molecular target: T3, rat L-type channels (α1C+α2δ+β1b cDNA subunits) (Rattus norvegicus, UniProt P22002); assay: Whole cell patch clamp, L-type calcium channel block in HEK 293 cells; assay type: cell-based; conditions: Tested at 0.1 Hz, 5 mM Ba2+
T3 construct: expressed in transfected cells
Protocol: as §1, §2
(§3) Normalized dose-response curves were fit (Sigmaplot 4.0, SPSS Inc., Chicago, Ill.) by the Hill equation to determine IC50 values. […]
(§4) Whole cell patch clamp experiments were performed using an Axopatch 200B amplifier (Axon Instruments, Burlingame, Calif.) linked to a personal computer equipped with pCLAMP software. […] Data were analyzed using Clampfit (Axon Instruments) and SigmaPlot 4.0 (Jandel Scientific).

[4] = molecular target: T1, rat N-type channels (α1B+α2δ+β1b subunits); assay: Whole cell patch clamp, N-type calcium channel block in HEK 293 cells; assay type: cell-based; conditions: Tested at 0.1 Hz, 5 mM Ba2+
[5] = molecular target: T4, P/Q-type channels (α1A+α2δ+β1b cDNA subunits) (Rattus norvegicus, UniProt P54282); assay: Whole cell patch clamp, P/Q-type calcium channel block in HEK 293 cells; assay type: cell-based; conditions: Tested at 0.1 Hz, 5 mM Ba2+
T4 construct: expressed in transfected cells
Protocol: as §1, §2, §3, §4

[6] = 0.067 Hz, read-out: IC50 for N-type Calcium Channel Block (0.067 Hz)
[7] = 0.2 Hz, read-out: IC50 for N-type Calcium Channel Block (0.2 Hz)
[8] = 80 mV, read-out: Block of α1G T-type Channels IC50, 80 mV
[9] = 100 mV, non-inactivating protocol, read-out: Block of α1G T-type Channels IC50, 100 mV

Structure (SMILES)	Maximum Possible Effect±SEM, Phase I (rat formalin model; Phase I)	Maximum Possible Effect±SEM, Phase II (rat formalin model; Phase II)	Maximum Possible Effect±SEM, Phase IIA (rat formalin model; Phase IIA)	IC50 [1, 6]	IC50 [1, 7]	specificity for N-type channels as compared to L and P/Q-type [1]	IC50 [2, 8]	IC50 [2, 9]	IC50 [3]	IC50 [4]	IC50 [5]
COc1c(C(C)(C)C)cc(C(=O)N2CCN(C(=O)CCCCC(c3ccc(F)cc3)c3ccc(F)cc3)C[C@@H]2C)cc1C(C)(C)C [Compound P104]	79 ± 9%	61 ± 9%	50 ± 12%	0.06 µM	0.013 µM	selectively block N-type channels	0.27 µM	0.579 µM	144 µM	0.061 µM	1.66 µM
CCOC(=O)C1CN(Cc2cc(OC)c(OC)c(OC)c2)CCN1CCCCCC(c1ccc(F)cc1)c1ccc(F)cc1 (stereo not shown) [Compound P36, 1-[6,6-bis-(4-fluoro-phenyl)-hexyl]-4-(3,4,5,-trimethoxy-benzyl)-piperazine-2-carboxylic acid ethyl ester]	–	–	–	0.24 µM	0.13 µM	selectively block N-type channels	0.047 µM	0.202 µM	> 100 µM	0.136 µM	0.92 µM
